Measured values taken from patent US11400103B2, “Methods of preventing platelet activation” (Vanderbilt University, priority 2015, dated 2022).
“Also recorded” adds a separate entry of the source.

What was measured:
[1] = system: human washed platelets; experiment: Dilysyl-MDA crosslinks in arachidonic acid-activated human washed platelets (LC/MS/MS); assay type: cell-based; details: preincubation 40 min (ozagrel 100 μM, aspirin 100 μM, SA or 3-MoSA 1.5 mM), then 5 μM arachidonic acid 2 h
Protocol: (§1) In vitro platelet activation: Blood obtained from healthy volunteers was collected into vacuum tubes containing citrate, from a peripheral vein using a 21-gauge needle, and washed platelets were prepared as previously described (7). The platelets were counted with a Coulter counter and diluted with resuspension buffer to a final concentration of […], and aliquoted in volumes corresponding to 500 μl. The aliquots were preincubated for 40 min at room temperature with vehicle, the thromboxane synthase inhibitor ozagrel (100 μM), aspirin (100 μM) or the MDA scavengers, SA (1.5 mM) or 3-MoSA (1.5 mM). Next, arachidonic acid (5 μM) was added and the platelets were incubated for an additional 2 h at room temperature. The reactions were stopped by adding indomethacin (100 μM) and the aldehyde scavenger pyridoxamine (1 mM) for 30 min at 4° C., to inhibit all residual COX-1 activity and to prevent formation of MDA adducts on proteins during the purification process, respectively. An aliquot (5 μl) of sample was used for protein estimations using a BCA assay.
Analysis of Protease-Derived Lysyl-MDA-Lysyl Crosslinks (Dilysyl-MDA Crosslinks) in Washed Platelets by LC/ESI/MS/MS. Samples (around 3 mg of protein) were digested with proteases as previously described for lysyl-lactam adducts (7). In summary, the samples were subsequently heated at 95° C. and allowed to cool at room temperature, before step digestion with pronase (1 mg) at 37° C. for 24 h. Pronase was inactivated by heating samples at 95° C. for 10 min and then cooled to room temperature. Then, 1 μl of […] aminopeptidase was added for every 1 mg of sample protein and incubated at 37° C. for 24 h. Five nanograms of ^13C6-dilysyl-MDA crosslink standard were added to each platelet sample and dilysyl-MDA crosslinks were purified using Oasis cartridge as described above in the section for the preparation of dilysyl-MDA Crosslink standard. The eluate was dried under nitrogen flow to a volume of 100 μl, diluted up to 1 ml with a 0.1% formic acid aqueous solution, and filtered using a 0.22 µm nylon Spin-x centrifuge tube spun at 6,000 rpm for 5 min. Samples were purified by HPLC through the Thermo Scientific Aquasil C18 column. The fractions containing the radioactivity were pooled, concentrated in Oasis HLB cartridge, and then dried under nitrogen to a final volume of 40 μl.
Pooled HPLC fractions concentrated using Oasis were analyzed by LC/MS/MS using an YMC OD-AQ column. […] The gradient was as follows: 0-5 min 100-0% A, 5-7 min 0% A, 7-9 min 0-100% A, 9-15 min 100% A, with a flow rate of 0.2 ml/min. The mass spectrometer was operated in the positive ion mode and the electrospray needle was maintained at 4000 V. Nitrogen was used for both the sheath and auxiliary gas at pressures of 30 and 5 arbitrary units, respectively. […] These settings were used during all experiments, including the validation procedure.

[2] = system: COX-1; experiment: T×B2 in washed platelets by GC/MS as a measure of COX activity; assay type: cell-based, human; details: 5 μM arachidonic acid 2 h; for effect on T×B2 levels: scavenger 1.5 mM; for inhibition at 100 µM: Homo sapiens, Platelet, read-out: inhibition of T×B2 levels
Protocol: as §1
(§2) GC/NICI/MS quantification of thromboxane B2. Serum T×B2 (sT×B2) was measured as an indicator of inhibition of platelet COX activity from blood drawn into non-citrated vacuum tubes. Serum from patients was prepared by incubating the blood at 37° C. for 45 min and then centrifuged at 3,200×g for 15 min. Serum was separated and stored at −80° C. until analysis. For ex vivo experiment, 50 μl of washed platelets were used. sT×B2 was assayed by stable isotope dilution gas chromatography/mass spectrometry (GC/MS) with selective ion monitoring as described previously (10).

[3] = Rate of reactivity of the scavengers with MDA in vitro (HPLC); details: for formation of MDA adduct of the scavenger relative to MDA-lysine adduct: 37° C., 4 h, MDA ratio 1:1, 0.1 M phosphate pH 7.4, HPLC; for lysine-MDA adducts formation: Lysine and MDA incubated at 37° C. for 4 h in presence of scavenger
Protocol: Determination of the rate of reactivity of the scavengers with MDA in vitro. N^α-Acetyllysine with or without SA, 3-MoSA or 4-HoBA was incubated at 37° C. in the presence of MDA (ratio 1:1) in 0.1 M phosphate, pH 7.4. After 4 h, 10 μl aliquots were diluted to 200 μl with solvent A and analyzed by HPLC. Solvent A consisted to 20% methanol/0.2% formic acid and solvent B was 99.8% methanol/0.2% formic acid. The gradient was as follows: 0-1 min 100% A, 1-7 min 100-0% A, 7-14 min […]. Phenomenex Kinetex column at a flow rate of 0.2 ml/min and the absorbance at 280 nm were used.

[4] = system: human washed platelets; experiment: LC/MS/MS quantification of scavenger-MDA adducts from washed platelets; assay type: cell-based; details: 1.5 mM scavenger 40 min, then 5 μM arachidonic acid 2 h
Protocol: LC/MS/MS quantification of scavengers-MDA adducts from washed platelet. Washed platelets were activated as described above in the section “ex vivo activation”. The scavenger-MDA adducts were extracted three times with 500 μl of ethyl acetate from 50 μl of the reaction mixture, as described above. The extract was dried down, re-suspended in 100 μl of ACN-water (1:1, v/v), vortexed, and filtered through a 0.22-um spin X column. The reactions were analyzed by LC/MS/MS using the column and gradient as described above. The mass spectrometer was operated in the positive ion mode and the spray voltage was maintained at 5000 V. Nitrogen was used for the sheath gas and auxiliary gas at pressures of 30 and 5 arbitrary units, respectively. The optimized skimmer offset was set at 10, capillary temperature was 300° C. and the tube lens voltage for both compounds was set to 49. Selected reaction monitoring of specific transition ions for the precursor ions at m/z 178→106 (SA-MDA adduct) or m/z 208→136 (3-MoSA-MDA adduct) at −15 eV were used.

[5] = system: Human platelets; experiment: Inhibition of formation of LG adducts in platelets; assay type: cell-based; details: 1 mM compound, 10 μM dazoxiben 30 min, arachidonic acid 2 h
Protocol: Human platelets were pre-incubated with 10 μM dazoxiben, a thromboxane synthase inhibitor, and 1 mM of the specified compound or vehicle (control) for 30 min. After incubation, […] arachidonic acid was added for 2 h, and then the proteins were precipitated and digested to single amino acids by step-digestion with proteases. The daughter ions at m/z 332.1 and 84.1 for the lactam were monitored. Values are means±SD (n=9)*P<0.001 vs. control, +P<0.001 vs. 100 μM concentration.

[6] = system: RAW264.7 cells; experiment: LG-lysyl adduct formation on histones in RAW264.7 cells; assay type: cell-based; details: 500 μM scavenger 45 min, 20 μM AA 1 h, COX-2 stimulated cells
Protocol: (A). Scavengers were screened in RAW264.7 cells for the ability to decrease LG adduct formation on histones. Scavengers used were glucosamine (GA), 3-methoxysalicylamine (3-MoSA), pentylpyridoxamine (PPM), and 5-ethylsalicylamine (EtSA). Cells were stimulated to express COX-2, pretreated 45 min. with 500 μM scavenger or vehicle (H2O), and given 20 μM AA for 1 h before lysing and extracting histones. Histone proteins were analyzed by LC/ESI/MS/MS for LG-lysyl lactam adduct, n=2.

[7] = system: Human platelets; details: previously shown (ref 4); cited from earlier work
[8] = system: platelets of patients with SCD; experiment: Platelet dilysyl-MDA crosslinks in patients with sickle cell disease; assay type: in vivo, human
Description: Sample collection. Written informed consent was obtained from study participants and human blood was obtained following a protocol approved by the Institutional Review Board of Vanderbilt University. Samples were obtained from three different populations: healthy subjects who had no component of the MetSyn or SCD, patients with MetSyn and patients with SCD. Patients with MetSyn were 35-75 year old and fit the MetSyn criteria in accord with the American Heart Association/National Heart, Lung, and Blood Institute criteria (6). Patients with SCD were 25-50 year old and were homozygous sickle (SS) or compound heterozygote with beta-thalassemia (Sβ-thal) phenotype. […]
In vivo platelet activation: Metabolic Syndrome and Sickle Cell patients. […] Accordingly, the levels of dilysyl-MDA crosslinks in platelets were measured in two conditions in which there is evidence of in vivo platelet activation, metabolic syndrome (MetSyn) (8, 9) and sickle cell disease (SCD) (8, 9), and compared to the levels in platelets from healthy subjects isolated from blood collected in the same conditions. […]
Analysis of Protease-Derived Lysyl-MDA-Lysyl Crosslinks (Dilysyl-MDA Crosslinks) in Washed Platelets by LC/ESI/MS/MS. […] The fractions containing the radioactivity were pooled, concentrated in Oasis HLB cartridge, and then dried under nitrogen to a final volume of 40 μl. […]

[9] = system: platelet COX1; experiment: Serum T×B2 in patients with sickle cell disease (GC/MS); assay type: in vivo, human
Protocol: as §2

Molecule: CC(=O)O.COc1cccc(CN)c1O [3-MoSA, 3-methoxysalicylamine acetate]
- levels of dilysyl-MDA crosslinks after platelet activation ([1]; acetate): decreased levels of dilysysl-MDA crosslinks to baseline levels; also recorded: prevent formation of MDA adducts of platelet proteins
- effect on T×B2 levels [2]: neither SA nor 3-MoSA significantly affected T×B2 levels
- formation of MDA adduct of the scavenger relative to MDA-lysine adduct [3]: 15.1 fold
- lysine-MDA adducts formation [3]: inhibited
- formation of scavenger-MDA adducts in activated platelets [4]: concomitant appearance of the equivalent scavenger-MDA adduct
- scavenging of LG adducts in the platelet [5]: active
- effect on LG adducts of histones (nucleus) [6]: inactive

Molecule: NCc1ccc(O)cc1 [4-HoBA, 4-hydroxybenzylamine, reference compound]
- formation of MDA adduct of the scavenger relative to MDA-lysine adduct [3]: 0.6 fold

Molecule: CCc1ccc(O)c(CN)c1 [EtSA, 5-ethylsalicylamine]
- levels of dilysyl-MDA crosslinks after platelet activation [1]: as effective as scavengers as was SA; also recorded: prevent formation of MDA adducts of platelet proteins
- effect on LG adducts of histones (nucleus) [6]: blocks LG-lysyl adduct formation on histones
- effect on LG adducts of histones (nucleus) ([6]; listed as 5-ethylsalicylamine): effective scavenger

Molecule: Cc1ccc(O)c(CN)c1 [MeSA, 5-methylsalicylamine]
- levels of dilysyl-MDA crosslinks after platelet activation [1]: as effective as scavengers as was SA; also recorded: prevent formation of MDA adducts of platelet proteins

Molecule: CC(=O)O.NCc1ccccc1O [SA, Salicylamine acetate]
- levels of dilysyl-MDA crosslinks after platelet activation ([1]; acetate): decreased levels of dilysysl-MDA crosslinks to baseline levels; also recorded: prevent formation of MDA adducts of platelet proteins
- effect on T×B2 levels [2]: neither SA nor 3-MoSA significantly affected T×B2 levels
- formation of MDA adduct of the scavenger relative to MDA-lysine adduct [3]: 9.2 fold
- lysine-MDA adducts formation [3]: inhibited
- formation of scavenger-MDA adducts in activated platelets [4]: concomitant appearance of the equivalent scavenger-MDA adduct
- formation of levuglandinyl adducts of platelet proteins [7]: prevent formation of levuglandinyl adducts of platelet proteins

Molecule: CC(=O)Oc1ccccc1C(=O)O [aspirin, acetylsalicylic acid, reference compound]
- levels of dilysyl-MDA crosslinks after platelet activation [1]: reduced levels of the dilysysl-MDA crosslink to baseline levels; also recorded: reduce the dilysyl-MDA crosslinks to the levels in non-activated platelets
- inhibition at 100 µM [2]: 96%

Molecule: O=C(c1ccccc1)c1ccc2n1CCC2C(=O)O (stereo not shown) [ketorolac]
- levels of platelet dilysyl-MDA crosslinks ([8]; SCD patients treated with ketorolac during admission for vaso-occlusive crisis): 3.15±1.18 ng/mg of protein
- reduction of platelet dilysyl-MDA crosslinks ([8]; therapeutic use in SCD patients): reduction of dilysyl-MDA crosslinks to the level found in normal platelets
- levels of serum T×B2 ([9]; SCD patients during ketorolac treatment (from 219.7±183.1 ng/mL)): 68.9 ± 127.7 ng/mL
- reduction in serum T×B2 ([9]; SCD patients, therapeutic use): 69%

Molecule: O=C(O)/C=C/c1ccc(Cn2ccnc2)cc1 [ozagrel, reference compound]
- levels of dilysyl-MDA crosslinks after platelet activation [1]: reduced levels of the dilysysl-MDA crosslink to baseline levels; also recorded: reduce the dilysyl-MDA crosslinks to the levels in non-activated platelets
- inhibition at 100 µM [2]: 96%

Molecule: pentylpyridoxamine [reference compound]
- scavenging of LG adducts in the platelet [5]: effective scavenger
- effect on LG adducts of histones (nucleus) [6]: only partially effective
